Reference: ChEMBL document CHEMBL3046389, “Synthesis and biological evaluation of novel hydroquinone dimethyl ethers as potential anticancer and antimicrobial agents” (2013)
Values after ≈ are worked out from the molar mass of the structure shown.

Tests used:
Assay type in all cases: functional
Staphylococcus aureus [1] = experiment: Antimicrobial activity against Staphylococcus aureus DSM 1104 after 48 hr by two-fold serial broth dilution method; details: DSM 1104, 48 h
Pseudomonas aeruginosa [2] = experiment: Antimicrobial activity against Pseudomonas aeruginosa ATCC 10145 after 48 hr by two-fold serial broth dilution method; details: ATCC 10145, 48 h
SR = experiment: Growth inhibition of Homo sapiens (human) SR cells at 10 uM after 48 hr by SRB assay; details: read-out: GI
Escherichia coli = experiment: Antimicrobial activity against Escherichia coli ATCC 11775 after 48 hr by two-fold serial broth dilution method; details: ATCC 11775, 48 h
Candida albicans = experiment: Antimicrobial activity against Candida albicans DSM 70014 after 48 hr by two-fold serial broth dilution method; details: DSM 70014, 48 h
Bacillus subtilis = experiment: Antimicrobial activity against Bacillus subtilis ATCC 6633 after 48 hr by two-fold serial broth dilution method; details: ATCC 6633, 48 h
Staphylococcus aureus [3] = experiment: Antimicrobial activity against Staphylococcus aureus DSM 1104 after 48 hr by two-fold serial broth dilution method relative to ampicillin
Pseudomonas aeruginosa [4] = experiment: Ratio of ampicillin MIC to compound MIC for Pseudomonas aeruginosa ATCC 10145 after 48 hr by two-fold serial broth dilution method
T47D = experiment: Growth inhibition of Homo sapiens (human) T47D cells at 10 uM after 48 hr by SRB assay; details: read-out: GI
UO-31 = experiment: Growth inhibition of Homo sapiens (human) UO31 cells at 10 uM after 48 hr by SRB assay; details: UO-31, 48 h, read-out: GI
HOP-92 = experiment: Growth inhibition of Homo sapiens (human) HOP92 cells at 10 uM after 48 hr by SRB assay; details: HOP-92, 48 h, read-out: GI

## COc1ccc(OC)c(/C=C/c2nnc(Nc3ccc(Cl)cc3)s2)c1
Staphylococcus aureus [1]
  MBC: 100 mg/L (≈ 267 µM)
  MIC: 25 mg/L (≈ 66.9 µM)
Pseudomonas aeruginosa [2]
  MBC: 100 mg/L (≈ 267 µM)
  MIC: 100 mg/L (≈ 267 µM)
SR
  inhibition of growth at 10 µM: 32.1%
Escherichia coli
  MBC: 100 mg/L (≈ 267 µM)
  MIC: 100 mg/L (≈ 267 µM)
Candida albicans
  MFC: 50 mg/L (≈ 134 µM)
  MIC: 25 mg/L (≈ 66.9 µM)
Bacillus subtilis
  MBC: 100 mg/L (≈ 267 µM)
  MIC: 100 mg/L (≈ 267 µM)

## COc1ccc(OC)c(/C=C/c2nnc(S)n2-c2ccc(C)cc2)c1
Staphylococcus aureus [1]
  MBC: 25 mg/L (≈ 70.7 µM)
  MIC: 12.5 mg/L (≈ 35.4 µM)
Staphylococcus aureus [3]
  Activity: 40%
Pseudomonas aeruginosa [2]
  MBC: 50 mg/L (≈ 141 µM)
  MIC: 50 mg/L (≈ 141 µM)
Escherichia coli
  MBC: 50 mg/L (≈ 141 µM)
  MIC: 25 mg/L (≈ 70.7 µM)
Candida albicans
  MFC: 50 mg/L (≈ 141 µM)
  MIC: 25 mg/L (≈ 70.7 µM)
Bacillus subtilis
  MBC: 25 mg/L (≈ 70.7 µM)
  MIC: 12.5 mg/L (≈ 35.4 µM)

## COc1ccc(OC)c(/C=C/c2nnc(SCC(=O)c3cc(O)ccc3O)n2-c2ccc(Cl)cc2)c1
Staphylococcus aureus [1]
  MBC: 50 mg/L (≈ 95.4 µM)
  MIC: 50 mg/L (≈ 95.4 µM)
Pseudomonas aeruginosa [4]
  Ratio: 4
Pseudomonas aeruginosa [2]
  MBC: 25 mg/L (≈ 47.7 µM)
  MIC: 12.5 mg/L (≈ 23.9 µM)
Escherichia coli
  MBC: 50 mg/L (≈ 95.4 µM)
  MIC: 25 mg/L (≈ 47.7 µM)
Candida albicans
  MFC: 50 mg/L (≈ 95.4 µM)
  MIC: 25 mg/L (≈ 47.7 µM)
Bacillus subtilis
  MBC: 25 mg/L (≈ 47.7 µM)
  MIC: 12.5 mg/L (≈ 23.9 µM)

## COc1ccc(OC)c(/C=C/c2nnc(SC)n2-c2ccccc2)c1
Staphylococcus aureus [1]
  MBC: 50 mg/L (≈ 141 µM)
  MIC: 50 mg/L (≈ 141 µM)
Pseudomonas aeruginosa [4]
  Ratio: 2
Pseudomonas aeruginosa [2]
  MBC: 50 mg/L (≈ 141 µM)
  MIC: 25 mg/L (≈ 70.7 µM)
Escherichia coli
  MBC: 50 mg/L (≈ 141 µM)
  MIC: 50 mg/L (≈ 141 µM)
Candida albicans
  MFC: 50 mg/L (≈ 141 µM)
  MIC: 50 mg/L (≈ 141 µM)
Bacillus subtilis
  MBC: 50 mg/L (≈ 141 µM)
  MIC: 50 mg/L (≈ 141 µM)
T47D
  inhibition of growth at 10 µM: 41.8%
UO-31
  inhibition of growth at 10 µM: 44.5%

## COc1ccc(OC)c(/C=C/c2nnc(Nc3ccccc3)o2)c1
HOP-92
  inhibition of growth at 10 µM: 37.5%
Staphylococcus aureus [1]
  MBC: 50 mg/L (≈ 155 µM)
  MIC: 25 mg/L (≈ 77.3 µM)
Pseudomonas aeruginosa [4]
  Ratio: 4
Pseudomonas aeruginosa [2]
  MBC: 25 mg/L (≈ 77.3 µM)
  MIC: 12.5 mg/L (≈ 38.7 µM)
Escherichia coli
  MBC: 50 mg/L (≈ 155 µM)
  MIC: 50 mg/L (≈ 155 µM)
Candida albicans
  MFC: 50 mg/L (≈ 155 µM)
  MIC: 50 mg/L (≈ 155 µM)
Bacillus subtilis
  MBC: 25 mg/L (≈ 77.3 µM)
  MIC: 12.5 mg/L (≈ 38.7 µM)
